Data published in US3980703A, “Extraction of carboxylic acids from dilute aqueous solutions” (The Dow Chemical Company, priority 1975, dated 1976).

Tests used:
Type in all cases: physicochemical
[1] = Extraction of acetic acid from 18% aqueous NaCl with polar extractants, distribution coefficient by radiometric counting (Example 1); conditions: 1920 ppm acetic acid in 18% aqueous NaCl, equal volumes, 30 min
Source text: (§1) A trace quantity of radioactive carbon-14 labeled acetic acid was included. Portions of this solution were shaken for thirty minutes with equal volumes of extractant solutions having the compositions set out in the following table. The phases were allowed to disengage, separated and their relative acetic acid concentrations determined by radiometric counting in a scintillation counter. The distribution coefficient (ratio of acetic acid concentrations in organic and aqueous phase) for each extraction is also given in the table.

[2] = Extraction of lactic acid with TOPO solutions, distribution coefficient (Example 2); conditions: about 0.025 molar acid
Source text: as §1, with “A solution of 1920 ppm (approximately 0.2 percent) of acetic acid in 18% aqueous NaCl was made up. A” for “A”
(§2) In the manner of Example 1, about 0.025 molar aqueous solutions of acetic, glycolic and lactic acids were extracted with equal volumes of TOPO (trioctyl phosphine oxide) solutions in kerosene or Chevron 3.

[3] = Extraction of acetic acid with TOPO solutions, distribution coefficient (Example 2); conditions: about 0.025 molar acid
Source text: as §1, with “A solution of 1920 ppm (approximately 0.2 percent) of acetic acid in 18% aqueous NaCl was made up. A” for “A”
as §2

[4] = Extraction of glycolic acid with TOPO solutions, distribution coefficient (Example 2); conditions: for Distribution Coefficient For: Glycolic: about 0.025 molar acid
Source text: as §1, with “A solution of 1920 ppm (approximately 0.2 percent) of acetic acid in 18% aqueous NaCl was made up. A” for “A”
as §2

[5] = Extraction of acetic acid with tetra (n-butyl) urea, distribution coefficient (Example 3); conditions: 0.5 M extractant in Chevron 25; 0.2% acetic acid in 18% sodium chloride
Source text: (§3) A 1.9% solution of acrylic acid in water was equilibrated with an equal volume of a 28% solution of tetra-(n-butyl) urea in cyclohexane. […] A similar experiment with 0.2% acetic acid in 18% sodium chloride as the aqueous phase, and 0.5 M tetrabutyl urea in Chevron 25 as the extractant, gave a distribution coefficient of 0.40.

[6] = Extraction of acrylic acid with tetra (n-butyl) urea, distribution coefficient by titration (Example 3); conditions: 28% extractant in cyclohexane; 1.9% acrylic acid in water; equal volumes
Source text: as §3

[7] = 0.2 M TOPO in kerosene, aqueous phase 1 Molar NaCl
[8] = 0.5 M TOPO in Chevron 3, aqueous phase 1 Molar NaCl
[9] = 0.5 M TOPO in Chevron 3, aqueous phase water

CCCC[S+]([O-])CCCC [Di(n-butyl) sulfoxide]
Distribution coefficient (ratio of acetic acid concentrations in organic and aqueous phase) ([1]; 0.1 M extractant in Chevron 25): 0.18 | Distribution coefficient (ratio of acetic acid concentrations in organic and aqueous phase) ([1]; 0.5 M extractant in Chevron 25): 1.00

CCCCCCCCP(=O)(CCCCCCCC)CCCCCCCC [Trioctyl phosphine oxide, trioctyl phosphine oxide]
Distribution coefficient (ratio of acetic acid concentrations in organic and aqueous phase) ([1]; 0.5 M extractant in Chevron 25): 6.1 | Distribution Coefficient For: Lactic [2, 7]: 0.40 | Distribution Coefficient For: Lactic [2, 8]: 1.4 | Distribution Coefficient For: Lactic [2, 9]: 1.02 | Distribution Coefficient For: Acetic [3, 7]: 1.46 | Distribution Coefficient For: Acetic [3, 8]: 3.2 | Distribution Coefficient For: Acetic [3, 9]: 2.8 | Distribution Coefficient For: Glycolic [4, 7]: 0.13 | Distribution Coefficient For: Glycolic [4, 8]: 0.39 | Distribution Coefficient For: Glycolic [4, 9]: 0.35

O=C(O)CO [glycolic acid]
extraction effectiveness of glycolic acid relative to acetic and lactic acids ([4]; TOPO solutions in kerosene or Chevron 3): much less effectively extracted than acetic and lactic acids

CCCCN(CCCC)C(=O)N(CCCC)CCCC [tetra-(n-butyl) urea]
distribution coefficient (acetic acid) [5]: 0.40 | distribution coefficient for the acrylic acid (organic/aqueous) [6]: 1.05
